Measured values as given in patent US10940188B2, “Compounds and methods for treatment and prevention of Flavivirus infection” (priority 2016, dated 2021).

Tested on: ZIKV in human astrocytes
Assay: ZIKV infection of human astrocytes (ZIKVE immunostaining, NS1 Western blot/ELISA)
Assay type: cell-based, Zika virus
Settings: PRVABC59
Experimental: FIGS. 4A-1, 4A-2, 4B-1, 4B-2, 4B-3, 4C-1, 4C-2, 4D-1, and 4D-2. […] Cells were fixed 24 hours post infection and stained for ZIKVE (green) and DAPI (blue). Scale bar: 50 μm. Also shown is the quantification of ZIKV-infected astrocytes with multiple compound concentrations (FIG. 4A-2). Values represent mean±s.d. (n=6; ***P<0.001; One-way ANOVA). Shown in FIG. 4B-3 is virus production from compound-treated iPSC-derived human astrocytes (as in FIG. 2F) (n=3 cultures). Data represent mean±s.d. […] Shown are sample images and quantification (FIGS. 4B-1 and 4B-2). Values represent mean±s.d. (n=2; ***P<0.01; One-way ANOVA). Synergistic effect of Emricasan/PHA-690509 combination on improving cell viability in ZIKV infected astrocytes. Note that Emricasan and PHA-690509 inhibit the increased caspase-3 activity in a concentration-dependent manner in human astrocytes infected with FSS13025-ZIKV or MR766 ZIKV, and improve cell viability as measured by ATP production (FIGS. 4C-1, 4C-2, 4D-1, and 4D-2). Values represent mean±s.d. […]
FIGS. 8A-8E. […] Cell lysates were harvested 24 hours post infection and analyzed for ZIKV-NS1 and GAPDH protein levels by western blot. Shown are representative Western blot images (FIG. 8A) and quantification (FIG. 8B). […] Shown in FIG. 8D are representative images of immunostaining for ZIKVE (green) and DAPI (gray, left; Scale bar: 20 μm) and quantification (FIG. 8E). […]

O=C(Nc1ccc([N+](=O)[O-])cc1Cl)c1cc(Cl)ccc1O [Niclosamide]
inhibition of ZIKV infection in astrocytes: inhibited ZIKV^PR infection

CC(=O)Nc1ccc([C@H](C)C(=O)Nc2ncc(C(C)C)s2)cc1 [PHA-690509]
inhibition of ZIKV infection in astrocytes: inhibited ZIKV^PR infection
